Measured values taken from paper PMC9267128, “New 2-[(4-Amino-6-N-substituted-1,3,5-triazin-2-yl)methylthio]-N-(imidazolidin-2-ylidene)-4-chloro-5-methylbenzenesulfonamide Derivatives, Design, Synthesis and Anticancer Evaluation” (International Journal of Molecular Sciences, 2022).
“Also recorded” adds a separate entry of the source.

How the values were obtained:
HeLa (cervical cancer) = experiment: MTT cell viability assay, HeLa; format: cell-based, human; conditions: Homo sapiens, HeLa; MTT assay, 72 h of incubation
Outline: (§1)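 HCT-116 and HeLa cells in DMEM/10% FBS exposed 72 h to compounds over 1–100 µM. Viability by MTT (0.5 mg/mL, 2 h, 37 °C), formazan dissolved in DMSO and read at 550 nm; mean ± SD of at least three independent experiments.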

HCT-116 (colon cancer) = experiment: MTT cell viability assay, HCT-116; format: cell-based, human; conditions: Homo sapiens, HCT-116, 72 h, MTT assay, 72 h of incubation
Outline: as §1

MCF-7 (breast cancer) = experiment: MTT cell viability assay, MCF-7; format: cell-based, human; conditions: MTT assay, 72 h of incubation
Outline: (§2)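 Cells in DMEM with 10% FBS, 3 × 10^3 per well, exposed to compounds at 1–100 µM for 72 h at 37 °C. MTT at 0.5 mg/mL for 2 h, formazan dissolved in DMSO and read at 550 nm. Mean ± SD of at least three independent experiments, each in triplicate.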

HCT-116, MCF-7 and HeLa = experiment: MTT cytotoxicity, summary statements on all tested tumor cell lines together; format: cell-based, human; conditions: MTT 72 h
Protocol: Compounds 20–162 were evaluated in vitro for their effects on the viability of three cancer cell lines: HCT-116 (colon cancer), MCF-7 (breast cancer) and HeLa (cervical cancer), as well as the non-cancerous keratinocyte cell line (HaCaT). […] Analysis was performed using an MTT assay after 72 h of incubation.
(§3) Cell viability was examined using the MTT [3-(4,5-dimethylthiazol-2-yl)-2,5-diphenyltetrazolium bromide] assay. Cells were seeded in 96-well plates at a density of 3 × 10^3 cells/well and treated for 72 h with the tested compounds in the concentration range of 1–100 µM. Then, MTT (0.5 mg/mL) was added to the medium and cells were further incubated for 2 h at 37 °C. In the next stage, cells were lysed with DMSO and the absorbance of the formazan solution was measured at 550 nm with a plate reader (1420 multilabel counter, Victor, Jügesheim, Germany). The experiment was performed in triplicate. Values are expressed as the mean ± SD of at least three independent experiments. Cisplatin was used as a positive control.

[1] = test system: HaCaT (human keratinocyte cell line); experiment: MTT cell viability assay, non-cancerous HaCaT; format: cell-based; conditions: 72 h of incubation, non-cancerous keratinocytes
Outline: as §2

[2] = test system: SKOV3 (ovarian carcinoma cell line); experiment: MTT assay, mutant p53 ovarian cancer cells SKOV-3; format: cell-based; conditions: 72 h of incubation
Protocol: (§4) Thus, the ability of the selected compounds to exert cytotoxic activity toward cell lines harboring mutant p53 was examined. Compounds displaying a high selectivity index (Table 6) were selected for the analysis of their activity toward ovarian and breast cancer cells with wild-type p53 (A2780, MCF-7) and mutant p53 (SKOV-3, T47D).
as §3
(§5) Compounds 48, 62, 134, 138 and 140 were further examined toward MCF7 (breast cancer cell line, ATCC, HTB-22), T47D (breast cancer cell line, DSMZ ACC 739), A2780 (ovarian carcinoma cell line, ECACC, 93112519), and SKOV3 (ovarian carcinoma cell line, ATCC, HTB-77) cells. Cells were grown in Dulbecco’s Modified Eagle Medium (DMEM) supplemented with 10% fetal bovine serum (Thermo Fisher Scientific).

[3] = test system: A2780 (ovarian carcinoma cell line); experiment: MTT assay, wild-type p53 ovarian cancer cells A2780; format: cell-based; conditions: 72 h of incubation
Protocol: as §4, §3, §5

[4] = test system: MCF7 (breast cancer cell line, ATCC, HTB-22); experiment: MTT assay, wild-type p53 breast cancer cells MCF-7 (Table 11); format: cell-based, human; conditions: 72 h of incubation, wild-type p53, second determination
Protocol: as §4, §3, §5

[5] = test system: T47D (breast cancer cell line); experiment: MTT assay, mutant p53 breast cancer cells T47D; format: cell-based; conditions: 72 h of incubation
Protocol: as §4, §3, §5

Compound	IC50 (HeLa (cervical cancer)) [µM]	IC50 (HCT-116 (colon cancer)) [µM]	IC50 (MCF-7 (breast cancer); Homo sapiens, MCF7, 72 h) [µM]	cytotoxic activity for all tested cell lines (in words) (HCT-116, MCF-7 and HeLa)	IC50 [1] [µM]	IC50 [2] [µM]	IC50 (MCF-7 (breast cancer)) [µM]	IC50 [3] [µM]	IC50 [4] [µM]	IC50 [5] [µM]	IC50 ([1]; Homo sapiens, HaCaT, 72 h) [µM]
Cc1cc(S(=O)(=O)N=C2NCCN2)c(SCc2nc(N)nc(N3CCN(C)CC3)n2)cc1Cl [Compound 30]	153 ± 5	170 ± 3	145 ± 7	inactive							
N.N.[Cl][Pt][Cl] [cisplatin, reference compound]					7.7 ± 0.2	71 ± 0.1	3 ± 0.1	1.4 ± 0.1	3 ± 0.1	3.1 ± 0.1	
Cc1cc(S(=O)(=O)N=C2NCCN2Cc2ccc(C(F)(F)F)cc2)c(SCc2nc(N)nc(N(C)C)n2)cc1Cl [Compound 118]	115 ± 2	105 ± 4	10 ± 0.5	inactive							> 500
Cc1cc(S(=O)(=O)N=C2NCCN2Cc2ccccc2)c(SCc2nc(N)nc(N3CCN(c4ccc([N+](=O)[O-])cc4)CC3)n2)cc1Cl [Compound 67]	140 ± 7	168 ± 8	153 ± 5	inactive; also recorded: loss of activity							
Cc1cc(S(=O)(=O)N=C2NCCN2Cc2ccccc2)c(SCc2nc(N)nc(N3CCN(S(=O)(=O)c4ccccc4)CC3)n2)cc1Cl [Compound 70]	550 ± 21	300 ± 18	490 ± 10	loss of activity							
Cc1cc(S(=O)(=O)N=C2NCCN2)c(SCc2nc(N)nc(Nc3ccc(F)cc3)n2)cc1Cl [Compound 26]	34 ± 1	33 ± 2	33 ± 1								45 ± 2
Cc1cc(S(=O)(=O)N=C2NCCN2)c(SCc2nc(N)nc(N3CCC(Cc4ccccc4)CC3)n2)cc1Cl [Compound 43]	19 ± 0.5	17 ± 1	22 ± 0.5								43 ± 2
Cc1cc(S(=O)(=O)N=C2NCCCN2Cc2ccc(C(F)(F)F)cc2)c(SCc2nc(N)nc(N3CCCc4ccccc43)n2)cc1Cl [Compound 158]	6 ± 0.3	5 ± 0.3	8 ± 0.4								17 ± 1
Cc1cc(S(=O)(=O)N=C2NCCN2Cc2ccc(Br)cc2)c(SCc2nc(N)nc(N(C)c3ccc(Cl)cc3)n2)cc1Cl [Compound 105]	17 ± 0.5	13 ± 0.8	10 ± 0.2								35 ± 2
Cc1cc(S(=O)(=O)N=C2NCCN2Cc2ccc(F)cc2)c(SCc2nc(N)nc(N3CCN(Cc4ccccc4)CC3)n2)cc1Cl [Compound 101]	10 ± 0.6	12 ± 0.5	11 ± 0.2								21 ± 1
Cc1cc(S(=O)(=O)N=C2NCCN2Cc2ccccc2)c(SCc2nc(N)nc(N3CCN(c4ccccc4)CC3)n2)cc1Cl [Compound 57]	102 ± 2	8 ± 0.1	8 ± 0.2								48 ± 2
Cc1cc(S(=O)(=O)N=C2NCCN2Cc2ccccc2)c(SCc2nc(N)nc(N3CCN(C)CC3)n2)cc1Cl [Compound 56]	37 ± 1	22 ± 1	54 ± 1								58 ± 2
Cc1cc(S(=O)(=O)N=C2NCCN2Cc2ccc(F)cc2)c(SCc2nc(N)nc(N3CCN(c4ccc(F)cc4)CC3)n2)cc1Cl [Compound 93]	8 ± 0.4	7 ± 0.3	7 ± 0.5								18 ± 1
Cc1cc(S(=O)(=O)N=C2NCCN2Cc2cc(C(F)(F)F)cc(C(F)(F)F)c2)c(SCc2nc(N)nc(Nc3ccc(C(F)(F)F)cc3)n2)cc1Cl [Compound 147]	15 ± 1	6.5 ± 0.3	8 ± 0.2								28 ± 1
Cc1cc(S(=O)(=O)N=C2NCCCN2Cc2ccc(C(F)(F)F)cc2)c(SCc2nc(N)nc(N3CCN(c4ccccc4)CC3)n2)cc1Cl [Compound 159]	15.5 ± 0.5	9 ± 0.5	10 ± 0.3								29 ± 1
Cc1cc(S(=O)(=O)N=C2NCCN2Cc2ccc(F)cc2)c(SCc2nc(N)nc(N3CCN(c4ccccc4)CC3)n2)cc1Cl [Compound 92]	8 ± 0.5	7 ± 0.3	8 ± 0.4								18 ± 1
Cc1cc(S(=O)(=O)N=C2NCCN2Cc2ccc(C(F)(F)F)cc2)c(SCc2nc(N)nc(NCc3ccccc3)n2)cc1Cl [Compound 127]	18 ± 1	17 ± 0.5	17.5 ± 1								39 ± 2
COc1ccc(N2CCN(c3nc(N)nc(CSc4cc(Cl)c(C)cc4S(=O)(=O)N=C4NCCN4Cc4ccc(F)cc4)n3)CC2)cc1 [Compound 100]	8 ± 0.5	8 ± 0.2	7 ± 0.1								18 ± 1
Cc1cc(S(=O)(=O)N=C2NCCN2Cc2ccccc2)c(SCc2nc(N)nc(N3CCN(c4cccc(C(F)(F)F)c4)CC3)n2)cc1Cl [Compound 61]	10 ± 0.2	6.5 ± 0.1	9 ± 0.3								21 ± 1
Cc1cc(S(=O)(=O)N=C2NCCN2Cc2ccc(F)cc2)c(SCc2nc(N)nc(Nc3ccc(F)cc3)n2)cc1Cl [Compound 86]	16 ± 0.2	13 ± 0.5	15 ± 0.2								35 ± 2
Cc1cc(S(=O)(=O)N=C2NCCN2Cc2ccc(F)cc2)c(SCc2nc(N)nc(N3CCN(c4ccc(C(F)(F)F)cc4)CC3)n2)cc1Cl [Compound 95]	8 ± 0.4	7 ± 0.3	7 ± 0.1								18 ± 1
Cc1cc(S(=O)(=O)N=C2NCCN2Cc2ccc(Br)cc2)c(SCc2nc(N)nc(Nc3ccccc3)n2)cc1Cl [Compound 104]	25 ± 1	17 ± 1	13 ± 0.4								44 ± 2
COc1ccc(N2CCN(c3nc(N)nc(CSc4cc(Cl)c(C)cc4S(=O)(=O)N=C4NCCN4Cc4ccc(C(F)(F)F)cc4)n3)CC2)cc1 [Compound 139]	12 ± 1	6 ± 0.1	13 ± 1								24 ± 1
Cc1cc(S(=O)(=O)N=C2NCCN2Cc2cc(C(F)(F)F)cc(C(F)(F)F)c2)c(SCc2nc(N)nc(N3CCN(c4ccc(Cl)c(Cl)c4)CC3)n2)cc1Cl [Compound 155]	10 ± 0.1	5 ± 0.1	6 ± 0.1								19 ± 1
Cc1cc(S(=O)(=O)N=C2NCCN2Cc2ccc(F)cc2)c(SCc2nc(N)nc(N3CCN(C)CC3)n2)cc1Cl [Compound 91]	34 ± 2	20 ± 1	13 ± 0.4								54 ± 2
